From patent publication US20240196889A1, “USE OF DI- AND TRI[…] ACIDS IN THE PREVENTION OF BIOFILM FORMATION” (priority 2020, published 2024)
Values after ≈ are worked out from the molar mass of the structure shown.

Tests used:
[1] = tested on: S. aureus SH1000; experiment: Antibiofilm assay (Calgary biofilm device); format: cell-based, Staphylococcus aureus
Description: (§1) A static peg assay for the prevention of bacterial biofilm formation was used as described previously. A lid carrying 96 polystyrene pegs was fitted into a microtiter plate with a peg hanging into each well. Two-fold serial dilutions of the compounds in 100 μl liquid broth per well were prepared in the microtiter plate. Subsequently, an overnight culture was diluted 1:100 into the respective liquid broth, and 100 μl (˜10^6 cells) was added to each well of the microtiter plate, resulting in a total amount of 200 μl medium per well. After placing the lid on the microtiter plate, samples containing Salmonella, Pseudomonas or E. coli were incubated statically in TSB 1/20 for 48 h at 25° C., whereas S. aureus was incubated in undiluted TSB at 37° C. for 48 h. After incubation, the lid was removed from the microtiter plate and liquid culture was transferred to a new microtiter plate prior to determining the prior to determining the planktonic growth in each well via OD600 measurements using a Synergy MX multimode reader (Biotek, Winooski, VT). The pegs were washed once in 200 μl PBS and the remaining attached bacteria were stained for 30 min with 200 μl 0.1% crystal violet in an isopropanol-methanol-PBS solution (1:1:18). Excess stain was washed off by placing the pegs in a 96-well plate filled with 200 μl distilled water per well. Afterwards, the pegs were air dried for 30 min and the dye bound to the adherent cells dissolved into 200 μl 30% glacial acetic acid. The OD570 of each well was measured using a Synergy MX multimode reader. Data was analysed using the GraphPad Prism 6 software.

[2] = tested on: S. Typhimurium SL1344 (S1), S. Typhimurium ATCC14028 (S2) and E. coli MG1655 (E1); experiment: Mixed-species biofilm assay (CFU); format: cell-based, Salmonella Typhimurium and E. coli
Description: In situ, biofilms are typically complex communities consisting of various bacterial strains and species [Elias & Banin (2012) FEMS Microbiol Rev 36, 990-1004; Burmølle et al. (2014) Trends Microbiol 22, 84-91; Giaouris et al. (2015) Front Microbiol 6, Article 841; Mitri & Richard Foster (2013) Communities. Annual Review of Genetics 47, 247-273]. […] Microbial ecology 68, 146-154]. Hereto, a a previously characterized model community was utilized consisting of two Salmonella and one E. coli strain (S. Typhimurium SL1344 (S1), S. Typhimurium ATCC14028 (S2) and E. coli MG1655 (E1)). […] The reduced biofilm productivity of the mixed-species community is mainly due to the inhibition of the S2 strain (FIG. 6B). The lack of […] inhibition in mixed-species conditions is possibly due to agaric acid weakening the competitive interactions experienced by S1 (FIG. 6C). […] Consequently, […] detected the damage imposed by competition via its stress response systems and induces a competitive response. […] Therefore, it was subsequently explored whether agaric acid can interfere with the increased tolerance in mixed-species conditions by weakening the competition and preventing the induction of this competitive response.
ONCs of S1, S2 and E1 were normalized to an OD595 of 3.2 and added to a small (60 mm Ø) glass Petri dishes containing 10 ml of 1/20 TSB. The three strain were inoculated in a 1:1:1 ratio and incubated under static conditions at 25° C. for 48 h. The same total number of cells was inoculated in mono- and mixed-species conditions (˜12*10^7 cells ml^−1). Afterwards, the liquid above the biofilms was poured off and the biofilms were scraped off the bottom of the plate in 1 ml of PBS, passed through a syringe (25 G) and vortexed to break down the biofilm structure and ensure an homogenous suspension during dilution. The number of colony forming units (CFU) of biofilms was determined by plating. To differentiate between the strains, S1 was labelled with constitutive gfpmut3 on a plasmid, while S2 and E1 were labelled with plasmid-encoded constitutive dsRed.T4. […]

[3] = tested on: Salmonella; experiment: Minimal inhibitory concentration (MIC) assay; format: cell-based, Salmonella enterica serovar Typhimurium; details: TSB 1/20, 24 h, 25° C., same conditions as the biofilm assay
Description: MIC values were determined in a 96-well plate. Two-fold serial dilutions of agaric acid or DMSO were prepared in 100 μl of TSB 1/20 and 100 μL of the inoculum diluted 1/100 in TSB 1/20 was added. The plate was covered with a Breathable Sealing Membrane and a lid and incubated for 24 h at 25° C., shaking at 200 rpm.

[4] = tested on: E. coli TG1; experiment: Antibiofilm assay (Calgary biofilm device); format: cell-based, Escherichia coli
Description: as §1, with “Excess stain was washed off by placing the pegs in a 96-well plate filled with 200 μl distilled water per well. Afterwards, the pegs were air dried for 30 min and the dye bound to the adherent cells dissolved into 200 μl 30% glacial acetic acid.” left out

[5] = tested on: Salmonella genes related to biofilm formation; experiment: Microtiter-plate-based GFP promoter fusion assay; format: cell-based, Salmonella Typhimurium ATCC 14028; details: 100 μM
Description: To unravel the mechanism by which agaric acid inhibits biofilm formation, an in house developed reporter GFP-promoter fusion library was screened. This library contains reporters for 130 Salmonella genes related to biofilm formation, including genes regulating matrix production, fimbriae and flagella synthesis, quorum sensing and c-di-GMP regulation (Table 2) [Robijns et al. (2014). Biofouling 30, 605-625.]. A time-lapse of the first 24 h of biofilm formation in microtiter plates was performed to identify genes that are differentially transcribed in the presence of 100 μM agaric acid. As these reporter fusions express the stable GFPmut3 variant as a fluorophore, the measured fluorescence values are the accumulation of fluorescence over time [Robijns et al. (2014). Biofouling 30, 605-625](FIG. 2).
1.5 μl of the reporter fusions' ONCs were transferred in three repeats to black polystyrene, clear-bottomed microtiter plates (Greiner bio-one 655096) containing 200 μl of 1/20 TSB with either a final concentration of 100 μM agaric or the corresponding amount of DMSO. Subsequently, the microtiter plates were incubated statically, at 25° C. for 24 h. Every 3 h, the fluorescence (excitation 488 nm, emission 511 nm) and absorbance at 600 nm (OD600) were measured using a Synergy MX multimode reader. For data analysis, blank measurements were subtracted from both the fluorescence (using a promoterless pFPV25 vector as control) and OD600. The ratio between the different OD600 values of the strains/conditions was used to normalize any effects on the fluorescence caused by growth differences in the bacteria. Significant differences in the level of fluorescence between treatment and control were determined using a two-tailed Student t-test (P<0.05).

CCCCCCCCCCCCCCCCC(C(=O)O)C(O)(CC(=O)O)C(=O)O (stereo not drawn) [Agaric acid, 2-hydroxynonadecane-1,2,3-tricarboxylic acid]
planktonic growth (OD600) [1]: inhibits
biofilm inhibition versus bactericidal effect ([1]; comparison of effective concentrations): biofilm inhibition occurred already at a lower concentration than the bactericidal effect
biofilm formation ([1]; crystal violet staining, undiluted TSB, 37° C., 48 h): inhibits
competition experienced by S1 in presence of S2 and E1 [2]: weakens the competition experienced by S1
biofilm formation of S2 strain in the mixed-species community ([2]; 100 μM): significantly inhibited
number of biofilm cells of mixed-species consortium attached to abiotic surface ([2]; S1, S2 and E1 1:1:1, 48 h, 25° C.): significantly reduced the number of biofilm cells
MIC [3]: 8 mM (≈ 3330 µg/mL)
planktonic growth (OD600) [4]: unaffected, except for an increase at the highest concentration
concentration at which significant biofilm inhibition already occurred ([4]; crystal violet staining): 12.5 µM
transcription of class III flagellar genes flgM, flgK and motA [5]: significantly reduced
transcription of tdcA, flgB, fljB and fliC [5]: not decreased at consecutive points
transcription of flhDC ([5]; between 9 h and 15 h): increased compared to the control
transcription of csgB and adrA ([5]; first 24 h): not influenced
transcription of central biofilm regulatory genes CsgD and RpoS ([5]; first 24 h of biofilm formation): not downregulated
transcription of flagellar sigma factor fliA ([5]; from 12 h onwards): significantly inhibited
